Data from ChEMBL document CHEMBL1759985, “In vitro anticancer activity and evaluation of DNA duplex binding affinity of phenyl-substituted indoloquinolines” (Bioorg Med Chem Lett, 2011).
Activity calls are given as the source filed them. The rule behind the calls is not given here.

Columns and labels:
5637 = test: Cytotoxicity against human 5637 cells assessed after 92 hrs by microtiter assay; assay type: functional, cell-based; settings: Homo sapiens, 5637, 92 h
DAN-G = test: Cytotoxicity against human DAN-G cells after 92 hrs by microtiter assay; assay type: functional, cell-based
RT-4 = test: Cytotoxicity against human RT4 cells after 92 hrs by microtiter assay; assay type: functional, cell-based; settings: RT-4, 92 h
A-427 = test: Cytotoxicity against human A427 cells after 92 hrs by microtiter assay; assay type: functional, cell-based; settings: A-427, 92 h
[1] = Cytotoxicity against human LCLC-103H cells after 92 hrs by microtiter assay; assay type: functional, cell-based
MCF7 = test: Cytotoxicity against human MCF7 cells after 92 hrs by microtiter assay; assay type: functional, cell-based; settings: MCF7, 92 h
Nucleic Acid [2] = test: Binding affinity to duplex DA DNA in 0.02 M cacodylate buffer assessed as change in melting temperature at 10 uM at pH 7 by UV spectrophotometer analysis; assay type: nucleic-acid assay
Nucleic Acid [3] = test: Binding affinity to duplex DG DNA assessed as DNA intercalation by circular dichroism spectra analysis; assay type: nucleic-acid assay
Nucleic Acid [4] = test: Binding affinity to duplex DM DNA in 0.02 M cacodylate buffer assessed as melting temperature at 10 uM at pH 7 by UV spectrophotometer analysis; assay type: nucleic-acid assay
Nucleic Acid [5] = test: Binding affinity to duplex DA DNA in 0.02 M cacodylate buffer assessed as melting temperature at 10 uM at pH 7 by UV spectrophotometer analysis; assay type: nucleic-acid assay
Nucleic Acid [6] = test: Binding affinity to duplex DA DNA in 0.02 M cacodylate buffer assessed as change in melting temperature at 10 uM at pH 7 by UV spectrophotometer analysis in presence of 0.1 M sodium chloride; assay type: nucleic-acid assay
Nucleic Acid [7] = test: Binding affinity to duplex DG DNA in 0.02 M cacodylate buffer assessed as change in melting temperature at 10 uM at pH 7 by UV spectrophotometer analysis; assay type: nucleic-acid assay
Nucleic Acid [8] = test: Binding affinity to duplex DM DNA in 0.02 M cacodylate buffer assessed as melting temperature at 10 uM at pH 7 by UV spectrophotometer analysis in presence of 0.1 M sodium chloride; assay type: nucleic-acid assay
Nucleic Acid [9] = test: Binding affinity to duplex DG DNA at 0.75 uM by fluorescence emission spectral analysis; assay type: nucleic-acid assay
Nucleic Acid [10] = test: Binding affinity to duplex DA DNA in 0.02 M cacodylate buffer assessed as melting temperature at 10 uM at pH 7 by UV spectrophotometer analysis in presence of 0.1 M sodium chloride; assay type: nucleic-acid assay
Nucleic Acid [11] = test: Displacement of ethidium bromide from duplex DG DNA after 5 mins; assay type: nucleic-acid assay
Nucleic Acid [12] = test: Binding affinity to duplex DM DNA in 0.02 M cacodylate buffer assessed as change in melting temperature at 10 uM at pH 7 by UV spectrophotometer analysis; assay type: nucleic-acid assay
Nucleic Acid [13] = test: Binding affinity to duplex DG DNA in 0.02 M cacodylate buffer assessed as melting temperature at 10 uM at pH 7 by UV spectrophotometer analysis in presence of 0.1 M sodium chloride; assay type: nucleic-acid assay
Nucleic Acid [14] = test: Binding affinity to duplex DG DNA in 0.02 M cacodylate buffer assessed as change in melting temperature at 10 uM at pH 7 by UV spectrophotometer analysis in presence of 0.1 M sodium chloride; assay type: nucleic-acid assay
Nucleic Acid [15] = test: Binding affinity to duplex DM DNA in 0.02 M cacodylate buffer assessed as change in melting temperature at 10 uM at pH 7 by UV spectrophotometer analysis in presence of 0.1 M sodium chloride; assay type: nucleic-acid assay
Nucleic Acid [16] = test: Binding affinity to duplex DG DNA in 0.02 M cacodylate buffer assessed as melting temperature at 10 uM at pH 7 by UV spectrophotometer analysis; assay type: nucleic-acid assay

ΔTm (Nucleic Acid [2]) [°C]	Tm (Nucleic Acid [4]) [°C]	Tm (Nucleic Acid [5]) [°C]	ΔTm (Nucleic Acid [6]) [°C]	ΔTm (Nucleic Acid [7]) [°C]	Tm (Nucleic Acid [8]) [°C]	Tm (Nucleic Acid [10]) [°C]	ΔTm (Nucleic Acid [12]) [°C]	Tm (Nucleic Acid [13]) [°C]	ΔTm (Nucleic Acid [14]) [°C]	ΔTm (Nucleic Acid [15]) [°C]	Tm (Nucleic Acid [16]) [°C]	Structure (SMILES)	IC50 5637 [µM]	IC50 (DAN-G) [µM]	IC50 (RT-4) [µM]	IC50 (A-427) [µM]	IC50 [1] [µM]	IC50 (MCF7) [µM]	other results
–	–	–	–	–	–	–	–	–	–	–	–	COC(=O)c1ccc(-c2c3cccc(OC)c3nc3c2[nH]c2c(OC)cccc23)cc1	11	> 20	> 20	16.6	> 20	> 20	–
–	–	–	–	–	–	–	–	–	–	–	–	COC(=O)c1ccc(-c2c3cccc(C)c3nc3c2[nH]c2c(C)cccc23)cc1	> 20	> 20	> 20	> 20	> 20	13.8	–
2.5	32.8	35.3	0.5	1.7	40.6	45.3	3.1	52	-0.5	0.5	42.4	COc1cccc2c(-c3ccc(C(=O)NCCN(C)C)cc3)c3[nH]c4c(OC)cccc4c3nc12	2.1	3.6	3.6	1.7	3.2	2.9	Activity (Nucleic Acid [3]): Active; Activity (Nucleic Acid [9]): Active; C50 (Nucleic Acid [11]): 93 µM
1.5	30.7	34.3	0.3	0.8	40.3	45.1	1	51.6	-0.9	0.2	41.5	Cc1cccc2c(-c3ccc(C(=O)NCCN(C)C)cc3)c3[nH]c4c(C)cccc4c3nc12	3.2	2.6	4.2	3.2	3.7	3	–
